According to ChEMBL document CHEMBL4004882, “Synthesis of novel trifluoromethyl-substituted spiro-[chromeno[4,3-d]pyrimidine-5,1'-cycloalkanes], and evaluation of their analgesic effects in a mouse pain model” (Bioorg Med Chem Lett, 2017):
Active and inactive are the calls of the source. The calls are words filed in the database; no cut-off is given here.

Experiments:
Mus musculus [1] = assay: Antinociceptive activity in Swiss mouse assessed as inhibition of capsaicin-induced nociception at 100 mg/kg, po administered 1 hr followed by capsaicin challenge measured for 5 mins relative to vehicle-treated control; assay type: functional
Mus musculus [2] = assay: Antinociceptive activity in po dosed Swiss mouse assessed as inhibition of CFA-induced mechanical allodynia after 2 hrs; assay type: functional; conditions: read-out: ID50 (the source's name)
Mus musculus [3] = assay: Toxicity in Swiss mouse assessed as effect on forced locomotor activity at 100 mg/kg, po after 1 hr by rotarod test; assay type: organism-based; conditions: in vivo
Mus musculus [4] = assay: Antinociceptive activity in Swiss mouse assessed as inhibition of CFA-induced mechanical allodynia at 300 mg/kg, po after 2 hrs relative to vehicle-treated control; assay type: functional
Mus musculus [5] = assay: Antinociceptive activity in Swiss mouse assessed as inhibition of CFA-induced mechanical allodynia at 100 mg/kg, po after 2 hrs relative to vehicle-treated control; assay type: functional
Mus musculus [6] = assay: Toxicity in Swiss mouse assessed as effect on spontaneous locomotor activity at 100 mg/kg, po after 1 hr by open field test; assay type: organism-based; conditions: in vivo
Mus musculus [7] = assay: Antinociceptive activity in Swiss mouse assessed as inhibition of CFA-induced mechanical allodynia at 100 mg/kg, po measured over 6 hrs; assay type: functional, organism-based
Mus musculus [8] = assay: Antinociceptive activity in Swiss mouse assessed as inhibition of CFA-induced mechanical allodynia at 100 mg/kg, po measured over 4 hrs; assay type: functional, organism-based

SMILES: FC(F)(F)c1nc(-c2ccccc2)nc2c1C1(CCCCC1)Oc1ccccc1-2
- inhibition (Mus musculus [1]): Active

SMILES: FC(F)(F)c1nc(-n2cccc2)nc2c1C1(CCCCC1)Oc1ccccc1-2
- ED50 (Mus musculus [2]): 422 mg/kg
- Activity (Mus musculus [3]): Non-Toxic
- Imax (Mus musculus [1]): 83%
- Imax (Mus musculus [4]): 66%
- inhibition in vivo at 100 mg/kg (Mus musculus [5]): ≤ 68%
- Activity (Mus musculus [6]): Non-Toxic
- inhibition (Mus musculus [7]): Active

SMILES: FC(F)(F)c1nc(-n2cccc2)nc2c1C1(CCCC1)Oc1ccccc1-2
- inhibition (Mus musculus [1]): Active

SMILES: FC(F)(F)c1nc(-n2cccc2)nc2c1C1(CCCCCC1)Oc1ccccc1-2
- inhibition (Mus musculus [1]): Active

SMILES: CC(C(=O)O)c1cccc(C(=O)c2ccccc2)c1 (stereo not given) [KETOPROFEN]
- ED50 (Mus musculus [2]): 169 mg/kg
- inhibition (Mus musculus [8]): Active
- inhibition in vivo at 100 mg/kg (Mus musculus [1]; Mus musculus, Swiss, po): 80%
- Imax (Mus musculus [4]): 75%
- inhibition in vivo at 100 mg/kg (Mus musculus [5]): ≤ 65%

SMILES: FC(F)(F)c1nc(-c2ccccc2)nc2c1C1(CCCCCC1)Oc1ccccc1-2
- inhibition (Mus musculus [1]): Active

SMILES: Nc1nc2c(c(C(F)(F)F)n1)C1(CCCCCC1)Oc1ccccc1-2
- inhibition (Mus musculus [1]): Active

SMILES: Nc1nc2c(c(C(F)(F)F)n1)C1(CCCC1)Oc1ccccc1-2
- inhibition (Mus musculus [1]): Active

SMILES: Nc1nc2c(c(C(F)(F)F)n1)C1(CCCCC1)Oc1ccccc1-2
- inhibition (Mus musculus [1]): Active

SMILES: FC(F)(F)c1nc(-c2ccccc2)nc2c1C1(CCCC1)Oc1ccccc1-2
- inhibition (Mus musculus [1]): Active
